7 compounds from US9339503B2, “Tetrahydro-quinazolinone derivatives as TANK and PARP inhibitors” (MERCK PATENT GMBH, priority 2012, dated 2016) can be followed below.

Broadly, the IC50 is the concentration at which inhibition is half-maximal. Higher therefore signals weaker potency in that assay.

T1 sequence (O95271 1023-1327): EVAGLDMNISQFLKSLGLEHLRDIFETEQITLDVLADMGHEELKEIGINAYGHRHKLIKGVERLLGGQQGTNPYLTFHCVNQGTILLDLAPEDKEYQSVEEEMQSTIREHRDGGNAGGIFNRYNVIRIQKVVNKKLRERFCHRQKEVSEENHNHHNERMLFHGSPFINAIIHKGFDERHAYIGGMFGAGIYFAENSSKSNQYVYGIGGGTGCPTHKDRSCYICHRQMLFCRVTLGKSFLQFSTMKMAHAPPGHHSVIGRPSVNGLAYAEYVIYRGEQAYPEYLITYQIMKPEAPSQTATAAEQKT

The assay has as its target T1, GST-tagged Tankyrase-1 (1023-1327 aa) (Homo sapiens, UniProt O95271).
T1 construct: GST-tagged Tankyrase-1 (1023-1327 aa)
The assay is described as follows: Tankyrase 1 autoparsylation assay (HTRF enzyme assay). In kind it is biochemical. Background: TR-FRET usually uses a lanthanide donor and a delayed reading to cut background.
In turn, `COc1cccc(N2CCN(c3nc4c(c(=O)[nH]3)CCCC4)CC2)c1` [Compound A7, 2-[4-(3-Methoxyphenyl)piperazin-1-yl]-5,6,7,8-tetrahydro-3H-quinazolin-4-one] showed a 50% inhibitory concentration (IC50) of under 300 nM.
In the case of `COc1ccccc1N1CCN(c2nc3c(c(=O)[nH]2)CCCC3)CC1` [Compound A12, 2-[4-(2-Methoxyphenyl)piperazin-1-yl]-5,6,7,8-tetrahydro-3H-quinazolin-4-one] it was under 300 nM; in that of `O=c1[nH]c(N2CCN(c3ccccc3Cl)CC2)nc2c1CCCC2` [Compound A9, 2-[4-(2-Chlorophenyl)piperazin-1-yl]-5,6,7,8-tetrahydro-3H-quinazolin-4-one], under 300 nM.
In the case of `COc1cc(F)ccc1N1CCN(c2nc3c(c(=O)[nH]2)CCCC3)CC1` [Compound A36, 2-[4-(4-fluoro-2-methoxy-phenyl)piperazin-1-yl]-5,6,7,8-tetrahydro-3H-quinazolin-4-one] it was under 300 nM; in that of `N#Cc1ccccc1N1CCN(c2nc3c(c(=O)[nH]2)CCCC3)CC1` [Compound A33, 2-[4-(4-oxo-5,6,7,8-tetrahydro-3H-quinazolin-2-yl)piperazin-1-yl]benzonitrile], under 300 nM.
In the case of `O=c1[nH]c(N2CCN(c3ccc(F)cc3)CC2)nc2c1CCCC2` [Compound A6, 2-[4-(4-Fluorophenyl)piperazin-1-yl]-5,6,7,8-tetrahydro-3H-quinazolin-4-one] it was 300 to 3000 nM; in that of `COc1ccc(N2CCN(c3nc4c(c(=O)[nH]3)CCCC4)CC2)cc1` [Compound A3, 2-[4-(4-methoxy-phenyl)-piperazin-1-yl]-5,6,7,8-tetrahydro-3H-quinazolin-4-one], 300 to 3000 nM.
